Experiments:
[1] = Pharmacokinetics in C57 mice; details: C57, mouse, in vivo
Method: After subcutaneous or intravenous administration to C57 mice, plasma was collected and the drug concentration in plasma was determined to illustrate the in vivo pharmacokinetic properties of the compound according to the present invention. […] 20.0 µL of thawed plasma sample was taken. 20 µL of 50% aqueous methanol solution (containing 100 ng mL^-1 Tolbutamide) and 60 µL of acetonitrile were added sequentially to precipitate protein. The mixture was vortexed for 5 minutes, and centrifuged at 4815 rpm for 8 minutes. 50.0 µL of the supernatant was taken, into which 50.0 µL of 0.5% aqueous formic acid solution was added. The mixture was vortexed for 5 minutes. 50 µL of the mixture solution was sampled and injected into the LC-MS/MS to determine the drug concentration in plasma. Based on the drug concentration in plasma of the compounds in C57 mice, the pharmacokinetic parameters were calculated by applying the software Winnolin 8.3 in a non-compartmental model, and the results were shown in Table 7 and Table 8 below. Table 7 Average Pharmacokinetic Parameters after Single Subcutaneous Administration to Mice

[2] = Repeated administration on male rats for 2 weeks (toxicity, toxicokinetics); format: in vivo, SD male rats
Method: 77 SD male rats (SPF grade) were selected and randomly divided into 10 groups based on body weight. Group 1 was the vehicle control group, including 5 animals. […] Group 5 to Group 7 were the groups administrated with the test substance 1; and Group 8 to Group 10 were the groups administrated with the test substance 2, each group including 8 animals, wherein 5 animals for primary test, and 3 animals for toxicokinetics test, and the administration dose was 1, 3 and 10 mg/kg respectively. Each of the above groups was continuously administered twice a week for 2 weeks (administrating at Day 1, Day 5, Day 8, Day 12 and Day 15).
During the experiment, the cage condition monitoring, detailed clinical observations, determination of the food consumption, determination of body weight, measurement of the blood biochemical and hematology indicator, investigation of the gross anatomy, weighing of the organ, studying on toxicokinetic were performed on all the groups of the animals.
Original data during each time period was tabulated. The average values and standard deviations and/or group change were calculated for each assay endpoint based on the group and sex. For each endpoint, the administrated group will be compared with the control group in the following aspect. A logarithmic conversion was performed to the endpoint data as desired prior to the start of the specific analyses.

[3] = in vivo

## CC[C@H](C)[C@H](NC(=O)[C@H](CC(C)C)NC(=O)[C@H](Cc1c[nH]c2ccccc12)NC(=O)[C@H](CCC(N)=O)NC(=O)[C@@H](NC(=O)[C@H](Cc1ccccc1)NC(=O)[C@H](C)NC(=O)[C@H](CCCCNC(=O)COCCOCCNC(=O)COCCOCCNC(=O)CC[C@H](NC(=O)CCCCCCCCCCCCCCCCCCC(=O)O)C(=O)O)NC(=O)[C@H](CCC(N)=O)NC(=O)[C@H](C)NC(=O)[C@@H](NC(=O)[C@H](CCCCN)NC(=O)[C@H](CC(=O)O)NC(=O)[C@H](CC(C)C)NC(=O)C(C)(C)NC(=O)[C@@H](NC(=O)[C@H](CO)NC(=O)[C@H](Cc1ccc(O)cc1)NC(=O)[C@H](CC(=O)O)NC(=O)[C@H](CO)NC(=O)[C@@H](NC(=O)[C@H](Cc1ccccc1)NC(=O)[C@@H](NC(=O)CNC(=O)[C@H](CCC(=O)O)NC(=O)C(C)(C)NC(=O)[C@@H](N)Cc1ccc(O)cc1)[C@@H](C)O)[C@@H](C)O)[C@@H](C)CC)[C@@H](C)CC)C(C)C)C(=O)N[C@@H](C)C(=O)NCC(=O)NCC(=O)N1CCC[C@H]1C(=O)N[C@@H](CO)C(=O)N[C@@H](CO)C(=O)NCC(=O)N[C@@H](C)C(=O)N1CCC[C@H]1C(=O)N1CCC[C@H]1C(=O)N1CCC[C@H]1C(=O)N[C@@H](CO)C(N)=O [Tirzepatide, reference compound]
[1]; iv, MRT(0-t)
  MRT: 11.4 h
[1]; iv, MRT(0-∞)
  MRT: 12 h
[1]; sc, MRT(0-t)
  MRT: 14.5 h
[1]; sc, MRT(0-∞)
  MRT: 15.3 h
[2]; MTD for 2 weeks, rats
  MTD: 2077 nmol/kg (MTD for 2 weeks)
[2]; SD male rats
  dose at which decrease of the body weight was observed after the first administration: ≥ 3 mg/kg
[2]; SD male rats, 1, 3, 10 mg/kg twice a week for 2 weeks
  Gross Anatomy: no abnormalities were found
[2]; SD male rats, administered twice a week for 2 weeks
  accumulation (toxicokinetic): no substantial accumulation
[2]; Sprague-Dawley, rat, in vivo, SD male rats, administered twice a week for 2 weeks
  MTD at 336 h: ≥ 10 mg/kg
[2]; rat 2-week MTD versus efficacy dose
  Safety Window (based on dosage): 416
[3]
  heart rate recovery time: > 120 h
